# Results reported in paper PMC6514909, “Synthesis of New Derivatives of Benzofuran as Potential Anticancer Agents” (Molecules, 2019).
# Entries after “also recorded” stand apart in the source; their conditions may differ.
# Assays:
# cancer cell lines = test: MTT cytotoxicity, cancer cell lines overall; type: cell-based, human; details: for cytotoxic properties toward cancer cell lines: K562, MOLT-4, HeLa, MTT, 48 h
# Procedure: (§1) Fourteen new benzofuran derivatives were tested for their cytotoxic properties in K562, MOLT-4 (leukemia, suspension cells), HeLa (cervix carcinoma, adherent cells), and normal endothelial cells (HUVEC). First, we measured the viability of cells after 48 h incubation with the given compound at the concentration of 100 μM. Next, for compounds that reduced cancer cells survival for more than 50%, we determined IC50 values. Cells that were exposed to 1% DMSO (a vehicle) served as the control with 100% survival. Cells treated with 1 µM staurosporine served as the internal control of the cytotoxicity experiments.
# (§2) Human umbilical vein endothelial cells (Life Technologies, Waltham, MA, USA) were cultured (according to the manufacturer instructions) in Medium 200 supplemented with Low Serum Growth Supplement. 1 × 10^4 HUVEC cells were seeded on each well on a 96-well plate (Nunc). The HeLa (human cervix carcinoma) K562 and MOLT-4 (leukemia) cells were cultured in RPMI 1640 medium supplemented with antibiotics and 10% fetal calf serum (HeLa, K562) in a 5% CO2-95% air atmosphere. 7 × 10^3 HeLa, K562, or MOLT-4 cells were seeded on each well on 96-well plate (Nunc). 24 h later cells were treated with the test compounds and then incubated for an additional 48 hours. Stock solutions of test compounds were freshly prepared in DMSO (dimethylsulfoxide). The final concentrations of compounds that were tested in the cell cultures were: 2 × 10^−1, 1 ×10^−1, 5 × 10^−2, 1 × 10^−2, 1 × 10^−3 and 1 × 10^−4 mM. The concentration of DMSO in the cell culture medium was 1%.
# (§3) The values of IC50 (the concentration of test compound that is required to reduce the cell survival fraction to 50% of the control) were calculated from dose-response curves and used as a measure of cellular sensitivity to a given treatment.
# (§4) The MTT [3-(4,5-dimethylthiazol-2-yl)-2,5-diphenyltetrazolium bromide; Sigma, St. Louis, MO, USA] assay determined the cytotoxicity of all the compounds, as described previously. Briefly, after 24 h or 48 h of incubation with the drug, the cells were treated with the MTT reagent, and incubation was continued for 2 h. MTT-formazan crystals were dissolved in 20% SDS and 50% DMF at pH 4.7 and absorbance was read at 570 and 650 nm on an ELISA-PLATE READER (FLUOstar Omega, BMG LABTECH GmbH, Ortenberg, Germany). As a control (100% viability), cells that were grown in the presence of medium vehicle only with 1% DMSO were used.
# K562 (leukemia) cells = test: MTT cytotoxicity assay, K562; type: cell-based, human; details: for IC50: 48 h incubation with cells, MTT; for reduction of viability of K562 cells: initial screening, 100 μM, 48 h
# Procedure: as §1, §2, §3, §4
# MOLT-4 (leukemia) cells = test: MTT cytotoxicity assay, MOLT-4; type: cell-based, human; details: for IC50: Homo sapiens, MOLT-4, 48 h incubation with cells, MTT; for reduction of viability of MOLT-4 cells: initial screening, 100 μM, 48 h
# Procedure: as §1, §2, §3, §4
# [1] = tested on: plasmid DNA (pcDNA3.1 HisC); test: Digestion of plasmid DNA with BamHI restriction nuclease; type: biochemical; details: 100 µM, overnight 37 °C, then BamHI 3 h; agarose gel
# Text: We hypothesized that a possible explanation of observed cytotoxicity might be due to an interaction of test benzofurans with genomic DNA (e.g., by intercalation). To verify this hypothesis, we investigated whether the test benzofurans have any effect on digestion of a plasmid DNA (pcDNA3.1 HisC) with endonuclease BamH1. pcDNA3.1 HisC contains a unique BamH1 restriction site which allows for plasmid linearization. Plasmid DNA exists in linear, superhelical, and circular forms that differ in electrophoretic mobility (Figure 6 lane 1). Plasmid DNA was converted to a linear form upon digestion with BamH1 (lane 2). […] In the presence of test compounds, pcDNA3.1 HisC was partially digested with Bam H1 restriction enzyme (Figure 6 lanes 4–7). Most of the plasmid DNA was converted to a linear form, however there is a circular form still present.
# 0.5 μg of plasmid DNA (pcDNAHisC, total length 5.5 kbp) containing a unique BamHI restriction site was dissolved in a 1× BamHI reaction buffer and then incubated overnight at 37 °C with the test compounds or daunorubicin, a strong intercalating agent, which was used as a positive control. The concentration of the test compounds and daunorubicin samples was 100 µM. In the next step, the reaction mixtures were digested with BamHI restriction endonuclease (2 U/μL) for 3 h at 37 °C. The total reaction volume was 10 μL. Products of the reaction were subjected to the 1% agarose gel electrophoresis in TBE buffer. The gel was stained with ethidium bromide and DNA fragments were visualized under a UV lamp (GBox, Syngene, Cambridge, UK).
# Figure 6 Digestion of pcDNA3.1HisC (total length 5.5kbp) with BamH1 endonuclease. M—marker DNA; 1—not digested plasmid DNA; 2—plasmid DNA digested with BamH1 (DNA present in linear form); 3—plasmid DNA + daunorubicin + BamH1; 4—plasmid DNA + 1c + BamH1; 5—plasmid DNA + 2d + BamH1; 6—plasmid DNA + 1e + BamH1; and, 7—plasmid DNA + 3d + BamH1.
# [2] = tested on: HeLa (human cervix carcinoma) cells; test: MTT cytotoxicity assay, HeLa; type: cell-based; details: for IC50: Homo sapiens, HeLa, 48 h incubation with cells, MTT; for reduction of viability of HeLa cells: initial screening, 100 μM, 48 h
# Procedure: as §1, §2, §3, §4
# [3] = tested on: caspase 3/7 in K562 cells; test: Apo-ONE Homogeneous Caspase-3/7 Assay in K562 cells; type: cell-based, human; details: compound at 5 × IC50 (staurosporine 1 µM), 18 h, 1% DMSO normalized to 1.0
# Procedure: We have measured the activity of caspases 3 and 7 (caspase 3/7), which are markers of programmed cell death. […] The activity of caspase 3/7 was measured using pro-fluorescent peptide substrate.
# 20 × 10^3 K562 cells were seeded on each well of 96-well plate in RPMI 1640 medium supplemented with 10% fetal calf serum and antibiotics. Cells were grown for 24 h at 37 °C and 5% CO2. The test compounds were dissolved in DMSO and added to the cell culture. The concentration of tested benzo[b]furans in cell culture was 5 × IC50.
# Cells treated with 1% DMSO served as a negative control, while cells incubated with staurosporine (a strong inducer of apoptosis) were used as a positive control. Cells were exposed to test compounds for 18 h at 37 °C and 5% CO2. Subsequently, Apo-ONE® Homogeneous Caspase-3/7 Assay (Promega, Madison, WI, USA) measured the activity of caspase 3 and 7, according to the manufacturer’s instructions. Briefly, the cells were lysed and incubated for 1.5 h with profluorescent substrate for caspase 3 and 7. Next, fluorescence was read at an excitation wavelength of 485 nm and emission of 520 nm with FLUOStar Omega plate reader (BMG-Labtech, Ortenberg, Germany).
# Figure 5 Activity of caspase 3 and 7 in K562 cells treated with the test benzofurans 1c, 1e, 2d, 3d, or staurosporine for 18 h. Apoptosis was determined by Apo-ONE® Homogeneous Caspase-3/7 Assay (Promega, Madison, WI, USA). Abbreviations: DMSO—K562 cells treated with 1% DMSO. The caspase activation level in cells exposed to 1% DMSO was normalized to 1.0. Mean values +/− SD are shown.
# [4] = tested on: Human umbilical vein endothelial cells (HUVEC); test: MTT cytotoxicity assay, HUVEC; type: cell-based; details: for IC50: Homo sapiens, HUVEC, 48 h incubation with cells, MTT; for cytotoxicity against human normal endothelial cells: initial screening, 100 μM, 48 h
# Procedure: as §1, §2, §3, §4
smiles,measurement,setting,value
"COc1cc2c(C)c(C(=O)O)oc2c(C(C)=O)c1OC [Compound 1, 7-Acetyl-5,6-dimethoxy-3-methylbenzofuran-2-carboxylic acid]",melting point,,212 to 214 °C
"COc1cc2c(C)c(C(N)=O)oc2c(C(C)=O)c1OC [Compound 1a, 7-Acetyl-5,6-dimethoxy-3-methylbenzofuran-2-carboxamide]",melting point,,203 to 205 °C
same,cytotoxic properties toward cancer cell lines,cancer cell lines,did not show the cytotoxic properties; also recorded: loss of cytotoxic properties
"COC(=O)c1oc2c(C(C)=O)c(OC)c(OC)cc2c1C [Compound 1b, Methyl 7-acetyl-5,6-dimethoxy-3-methyl-1-benzofuran-2-carboxylate]",melting point,,98 to 100 °C
"COC(=O)c1oc2c(C(C)=O)c(OC)c(OC)cc2c1CBr [Compound 1c, Methyl 7-acetyl-3-(bromomethyl)-5,6-dimethoxybenzofuran-2-carboxylate]",IC50,K562 (leukemia) cells,25 µM
same,IC50,"K562 (leukemia) cells; Homo sapiens, K562, 48 h",< 50 µM
same,reduction of viability of K562 cells,K562 (leukemia) cells,more than 50%
same,IC50,MOLT-4 (leukemia) cells,180 µM
same,reduction of viability of MOLT-4 cells,MOLT-4 (leukemia) cells,more than 50%
same,inhibition of digestion of plasmid DNA with BamH1 / interaction with DNA,[1],"to some extent, interact with DNA"
same,IC50,[2],50 µM
same,reduction of viability of HeLa cells,[2],more than 50%
same,increase in the activity of caspase 3/7,[3],about two-fold
same,IC50,[4],30 µM
same,cytotoxicity against human normal endothelial cells,[4],cytotoxic
"COc1cc2c(C)c(Br)oc2c(C(C)=O)c1OC [Compound 1d, 1-(2-Bromo-5,6-dimethoxy-3-methylbenzofuran-7-yl)ethanone]",melting point,,94 to 95 °C
"COc1cc2c(C)c(Br)oc2c(C(=O)CBr)c1OC [Compound 1e, 2-Bromo-1-(2-bromo-5,6-dimethoxy-3-methylbenzofuran-7-yl)ethanone]",IC50,K562 (leukemia) cells,41 µM
same,IC50,"K562 (leukemia) cells; Homo sapiens, K562, 48 h",< 50 µM
same,reduction of viability of K562 cells,K562 (leukemia) cells,more than 50%
same,IC50,MOLT-4 (leukemia) cells,70 µM
same,reduction of viability of MOLT-4 cells,MOLT-4 (leukemia) cells,more than 50%
same,inhibition of digestion of plasmid DNA with BamH1 / interaction with DNA,[1],"to some extent, interact with DNA"
same,IC50,[2],28 µM
same,reduction of viability of HeLa cells,[2],more than 50%
same,increase in the activity of caspase 3/7,[3],five-fold
same,IC50,[4],30 µM
same,cytotoxicity against human normal endothelial cells,[4],cytotoxic
"CC(=O)c1cc2oc(C)c(C(N)=O)c2cc1O [Compound 2a, 6-Acetyl-5-hydroxy-2-methylbenzofuran-3-carboxamide]",cytotoxic properties toward cancer cell lines,cancer cell lines,did not show the cytotoxic properties; also recorded: loss of cytotoxic properties
"CC(=O)c1cc2oc(C)c(C(N)=O)c2c(Br)c1O [Compound 2b, 6-Acetyl-4-bromo-5-hydroxy-2-methylbenzofuran-3-carboxamide]",cytotoxic properties toward cancer cell lines,cancer cell lines,loss of cytotoxic properties
"CC(=O)c1cc2oc(C)c(C(=O)O)c2c(Br)c1O [Compound 2e, 6-Acetyl-4-bromo-5-hydroxy-2-methylbenzofuran-3-carboxylic acid]",melting point,,196 to 197 °C
"COC(=O)c1c(C)oc2cc(C(O)C(Br)Br)c(OC)cc12 (stereo not shown) [Compound 3a, Methyl 6-(2,2-dibromo-1-hydroxyethyl)-5-methoxy-2-methylbenzofuran-3-carboxylate]",melting point,,170 to 172 °C
same,IC50,"K562 (leukemia) cells; Homo sapiens, K562, 48 h",85 µM
same,reduction of viability of K562 cells,K562 (leukemia) cells,more than 50%
same,IC50,MOLT-4 (leukemia) cells,85 µM
same,reduction of viability of MOLT-4 cells,MOLT-4 (leukemia) cells,more than 50%
same,IC50,[2],80 µM
same,reduction of viability of HeLa cells,[2],more than 50%
same,IC50,[4],67 µM
same,cytotoxicity against human normal endothelial cells,[4],cytotoxic
"COc1cc2c(C(=O)O)c(C)oc2cc1C(C)=O [Compound 3b, 6-Acetyl-5-Methoxy-2-Methylbenzofuran-3-Carboxylic Acid]",melting point,,249 to 250 °C
"COc1cc2c(C(N)=O)c(C)oc2cc1C(C)=O [Compound 3c, 6-Acetyl-5-methoxy-2-methylbenzofuran-3-carboxamide]",melting point,,223 to 224 °C
same,cytotoxic properties toward cancer cell lines,cancer cell lines,did not show the cytotoxic properties; also recorded: loss of cytotoxic properties
"COC(=O)c1c(CBr)oc2cc(C(C)=O)c(OC)cc12 [Compound 3d, Methyl 6-acetyl-2-(bromomethyl)-5-methoxybenzofuran-3-carboxylate]",IC50,K562 (leukemia) cells,28 µM
same,IC50,"K562 (leukemia) cells; Homo sapiens, K562, 48 h",< 50 µM
same,reduction of viability of K562 cells,K562 (leukemia) cells,more than 50%
same,IC50,MOLT-4 (leukemia) cells,55 µM
same,reduction of viability of MOLT-4 cells,MOLT-4 (leukemia) cells,more than 50%
same,IC50,[2],35 µM
same,reduction of viability of HeLa cells,[2],more than 50%
same,increase in the activity of caspase 3/7,[3],"minimal, if any"
same,IC50,[4],6 µM
same,cytotoxicity against human normal endothelial cells,[4],cytotoxic
same,decrease of cytotoxicity against human cancer cells compared to the lead compounds VIII-X,cancer cell lines; compared to lead compounds VIII-X,5–10 folds
"COc1cccc2c1C(=O)c1c(O)c3c(c(O)c1C2=O)C[C@@](O)(C(C)=O)C[C@@H]3O[C@H]1C[C@H](N)[C@H](O)[C@H](C)O1 [Daunorubicin, reference compound]",inhibition of digestion of plasmid DNA with BamH1 / interaction with DNA,[1],completely inhibited
"CN[C@@H]1C[C@H]2O[C@@](C)([C@@H]1OC)n1c3ccccc3c3c4c(c5c6ccccc6n2c5c31)C(=O)NC4 [staurosporine, reference compound]",increase in the activity of caspase 3/7,[3],significantly increased
